Structures are written as SMILES. A value given as a limit tells only on which side of the number the result lay.

The term IC50 denotes the concentration at which inhibition is half-maximal.

This experiment addresses T1, Full-length USP19 (Homo sapiens, UniProt O94966).
T1 construct: Full-length USP19 was purchased from Boston Biochem (E-576); purchased Boston Biochem E-576
T1 sequence (O94966 1-1318): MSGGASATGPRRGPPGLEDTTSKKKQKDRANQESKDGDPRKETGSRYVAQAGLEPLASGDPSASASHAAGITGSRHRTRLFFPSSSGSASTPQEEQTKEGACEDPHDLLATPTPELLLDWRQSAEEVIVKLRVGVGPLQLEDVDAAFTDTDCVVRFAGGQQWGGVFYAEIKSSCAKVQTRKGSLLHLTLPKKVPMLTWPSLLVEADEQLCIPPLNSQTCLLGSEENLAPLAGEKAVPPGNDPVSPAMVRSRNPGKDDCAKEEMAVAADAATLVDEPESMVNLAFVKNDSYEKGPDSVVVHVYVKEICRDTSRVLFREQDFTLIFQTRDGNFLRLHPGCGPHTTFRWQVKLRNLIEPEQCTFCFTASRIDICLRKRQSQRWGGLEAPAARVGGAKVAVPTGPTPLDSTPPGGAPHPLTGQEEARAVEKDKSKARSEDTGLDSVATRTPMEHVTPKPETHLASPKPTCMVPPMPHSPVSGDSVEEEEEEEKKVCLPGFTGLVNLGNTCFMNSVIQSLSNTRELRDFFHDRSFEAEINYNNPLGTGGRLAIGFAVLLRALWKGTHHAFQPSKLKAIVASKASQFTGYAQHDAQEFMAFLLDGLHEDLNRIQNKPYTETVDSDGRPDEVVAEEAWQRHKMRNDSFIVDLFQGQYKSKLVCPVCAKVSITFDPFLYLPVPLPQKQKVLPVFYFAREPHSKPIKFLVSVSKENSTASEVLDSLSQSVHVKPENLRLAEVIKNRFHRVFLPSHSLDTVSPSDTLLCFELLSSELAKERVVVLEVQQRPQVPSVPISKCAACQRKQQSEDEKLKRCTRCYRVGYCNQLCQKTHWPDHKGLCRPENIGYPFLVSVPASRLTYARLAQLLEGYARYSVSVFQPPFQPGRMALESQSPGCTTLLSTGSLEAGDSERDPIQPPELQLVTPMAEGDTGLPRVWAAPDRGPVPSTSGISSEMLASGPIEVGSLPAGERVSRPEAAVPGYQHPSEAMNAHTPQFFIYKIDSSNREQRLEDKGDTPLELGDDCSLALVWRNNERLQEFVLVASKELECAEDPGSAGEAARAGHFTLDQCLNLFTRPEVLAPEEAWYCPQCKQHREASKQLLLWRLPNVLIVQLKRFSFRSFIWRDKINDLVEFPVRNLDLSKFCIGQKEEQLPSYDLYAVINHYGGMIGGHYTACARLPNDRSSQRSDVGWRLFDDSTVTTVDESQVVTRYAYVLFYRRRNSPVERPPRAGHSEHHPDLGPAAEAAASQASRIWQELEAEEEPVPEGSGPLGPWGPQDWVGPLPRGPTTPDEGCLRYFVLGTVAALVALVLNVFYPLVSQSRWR
Nature of the experiment: USP19 fluorescence polarisation (FP) homogeneous assay with Ubiquitin-Lys-TAMRA substrate. The format is biochemical. As to conditions: 2.5 nM USP19, 30 min pre-incubation, average of at least two duplicate experiments. A digest of the protocol: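 Full-length USP19 preincubated 30 min at RT with inhibitor (200 μM to 2 μM series, 8–18 points) before adding 500 nM Ubiquitin-Lys-TAMRA substrate.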

Regarding `C[C@H](CC1CCCCC1)C(=O)N1CCC(O)(Cn2cnc3c(F)cccc3c2=O)C2(CCCC2)C1` (stereo partly drawn) [Example 131, 3-((7-((R)-3-Cyclohexyl-2-methylpropanoyl)-10-hydroxy-7-azaspiro[4.5]decan-10-yl)methyl)-8-fluoroquinazolin-4(3H)-one], the IC50 lay in the range of 0.5 to 5 µM. For the compound `C[C@H](CC1CCCCC1)C(=O)N1CCC(O)(Cn2cnc3sccc3c2=O)C2(CCCC2)C1` (stereo partly drawn) [Example 132, 3-((7-((R)-3-Cyclohexyl-2-methylpropanoyl)-10-hydroxy-7-azaspiro[4.5]decan-10-yl)methyl)thieno[2,3-d]pyrimidin-4(3H)-one], the IC50 was 0.5 to 5 µM. Consider `COc1ccc2c(=O)n(CC3(O)CCN(C(=O)[C@H](C)CC(F)(F)F)CC34CCCC4)cnc2c1` (stereo partly drawn) [Example 133, 3-((10-Hydroxy-7-((R)-4,4,4-trifluoro-2-methylbutanoyl)-7-azaspiro[4.5]decan-10-yl)methyl)-7-methoxyquinazolin-4(3H)-one], for which the IC50 lay within 5 to 50 µM. With `C[C@H](CC(F)(F)F)C(=O)N1CCC(O)(Cn2cnc3cc(Cl)ccc3c2=O)C2(CCCC2)C1` (stereo partly drawn) [Example 134, 7-Chloro-3-((10-hydroxy-7-((R)-4,4,4-trifluoro-2-methylbutanoyl)-7-azaspiro[4.5]decan-10-yl)methyl)quinazolin-4(3H)-one], the IC50 was 5 to 50 µM. For `C[C@H](CC(F)(F)F)C(=O)N1CCC(O)(Cn2ccc3ccc(F)cc3c2=O)C2(CCCC2)C1` (stereo partly drawn) [Example 135, 7-Fluoro-2-((10-hydroxy-7-((R)-4,4,4-trifluroo-2-methylbutanoyl)-7-azaspiro[4.5]decan-10-yl)methyl)isoquinolin-1(2H)-one], the IC50 was 5 to 50 µM. Turning to `C[C@H](CC(F)(F)F)C(=O)N1CCC(O)(Cn2ccc3ccncc3c2=O)C2(CCCC2)C1` (stereo partly drawn) [Example 136, 2-((10-Hydroxy-7-((R)-4,4,4-trifluoro-2-methylbutanoyl)-7-azaspiro[4.5]decan-10-yl)methyl)-2,7-naphthyridin-1(2H)-one], the IC50 was in the range of 5 to 50 µM. Next, `C[C@H](CC1CCCCC1)C(=O)N1CCC(O)(Cn2ccc3ccncc3c2=O)C2(CCCC2)C1` (stereo partly drawn) [Example 137, 2-((7-((R)-3-Cyclohexyl-2-methylpropanoyl)-10-hydroxy-7-azaspiro[4.5]decan-10-yl)methyl)-2,7-naphthyridin-1(2H)-one]: under 0.5 µM; `C[C@H](CC1CCCCC1)C(=O)N1CCC(O)(Cn2ccc3occc3c2=O)C2(CCCC2)C1` (stereo partly drawn) [Example 138, 5-((7-((R)-3-Cyclohexyl-2-methylpropanoyl)-10-hydroxy-7-azaspiro[4.5]decan-10-yl)methyl)furo[3,2-c]pyridin-4(5H)-one]: 5 to 50 µM. In the case of `COc1ccc2c(=O)n(CC3(O)CCN(C(=O)[C@H](C)CC4CCCCC4)CC34CCCC4)cnc2c1` (stereo partly drawn) [Example 139, 3-((7-((R)-3-Cyclohexyl-2-methylpropanoyl)-10-hydroxy-7-azaspiro[4.5]decan-10-yl)methyl)-7-methoxyquinazolin-4(3H)-one], the IC50 is 0.5 to 5 µM. With `COc1cc2ccn(CC3(O)CCN(C(=O)[C@H](C)CC(F)(F)F)CC34CCCC4)c(=O)c2cc1OC` (stereo partly drawn) [Example 140, 2-((10-Hydroxy-7-((R)-4,4,4-trifluoro-2-methylbutanoyl)-7-azaspiro[4.5]decan-10-yl)methyl)-6,7-dimethoxyisoquinolin-1(2H)-one], the IC50 was 50 to 250 µM. Regarding `CCn1ncc2c(=O)n(CC3(O)CCN(C(=O)[C@H](C)CC(F)(F)F)CC34CCCC4)cnc21` (stereo partly drawn) [Example 141, 1-Ethyl-5-((10-hydroxy-7-((R)-4,4,4-trifluroo-2-methylbutanoyl)-7-azaspiro[4.5]decan-10-yl)methyl)-1,5-dihydro-4H-pyrazolo[3,4-d]pyrimidin-4-one], the IC50 was 5 to 50 µM. Take `C[C@H](CC1CCCCC1)C(=O)N1CCC(O)(Cn2ccc3sccc3c2=O)C2(CCCC2)C1` (stereo partly drawn) [Example 142, 5-((7-((R)-3-Cyclohexyl-2-methylpropanoyl)-10-hydroxy-7-azaspiro[4.5]decan-10-yl)methyl)thieno[3,2-c]pyridin-4(5H)-one]: the IC50 fell in the range of 5 to 50 µM. For the compound `C[C@H](CC1CCCCC1)C(=O)N1CCC(O)(Cn2cnc3ccc(Cl)cc3c2=O)C2(CCCC2)C1` (stereo partly drawn) [Example 143, 6-Chloro-3-((7-((R)-3-cyclohexyl-2-methylpropanoyl)-10-hydroxy-7-azaspiro[4.5]decan-10-yl)methyl)quinazolin-4(3H)-one], the IC50 was under 0.5 µM. Next, `C[C@H](CC1CCCCC1)C(=O)N1CCC(O)(Cn2cnc3ccsc3c2=O)C2(CCCC2)C1` (stereo partly drawn) [Example 144, 3-((7-((R)-3-Cyclohexyl-2-methylpropanoyl)-10-hydroxy-7-azaspiro[4.5]decan-10-yl)methyl)thieno[3,2-d]pyrimidin-4(3H)-one]: 0.5 to 5 µM. Next, `C[C@H](CC1CCCCC1)C(=O)N1CCC(O)(Cn2cc(C(=O)N(C)C)c3ccccc3c2=O)C2(CCCC2)C1` (stereo partly drawn) [Example 145, 2-((7-((R)-3-Cyclohexyl-2-methylpropanoyl)-10-hydroxy-7-azaspiro[4.5]decan-10-yl)methyl)-N,N-dimethyl-1-oxo-1,2-dihydroisoquinoline-4-carboxamide]: 0.5 to 5 µM; `COc1cc2ccn(CC3(O)CCN(C(=O)[C@H](C)CC4CCCCC4)CC34CCCC4)c(=O)c2cc1OC` (stereo partly drawn) [Example 146, 2-((7-((R)-3-Cyclohexyl-2-methylpropanoyl)-10-hydroxy-7-azaspiro[4.5]decan-10-yl)methyl)-6,7-dimethoxyisoquinolin-1(2H)-one]: 0.5 to 5 µM; `C[C@H](CC(F)(F)F)C(=O)N1CCC(O)(Cn2cnc3ccc(Cl)cc3c2=O)C2(CCCC2)C1` (stereo partly drawn) [Example 147, 6-Chloro-3-((10-hydroxy-7-((R)-4,4,4-trifluoro-2-methylbutanoyl)-7-azaspiro[4.5]decan-10-yl)methyl)quinazolin-4(3H)-one]: 0.5 to 5 µM.

In the case of `C[C@H](CC(F)(F)F)C(=O)N1CCC(O)(Cn2cnc3ccc(F)cc3c2=O)C2(CCCC2)C1` (stereo partly drawn) [Example 148, 6-Fluoro-3-((10-hydroxy-7-((R)-4,4,4-trifluoro-2-methylbutanoyl)-7-azaspiro[4.5]decan-10-yl)methyl)quinazolin-4(3H)-one], the IC50 lay within 5 to 50 µM. Next, `C[C@H](CC(F)(F)F)C(=O)N1CCC(O)(Cn2cnc3cc(F)c(Cl)cc3c2=O)C2(CCCC2)C1` (stereo partly drawn) [Example 149, 6-Chloro-7-fluoro-3-((10-hydroxy-7-((R)-4,4,4-trifluoro-2-methylbutanoyl)-7-azaspiro[4.5]decan-10-yl)methyl)quinazolin-4(3H)-one]: 5 to 50 µM; `C[C@H](CC1CCCCC1)C(=O)N1CCC(O)(Cn2ccc3nccnc3c2=O)C2(CCCC2)C1` (stereo partly drawn) [Example 150, 6-((7-((R)-3-Cyclohexyl-2-methylpropanoyl)-10-hydroxy-7-azaspiro[4.5]decan-10-yl)methyl)pyrido[3,4-b]pyrazin-5(6H)-one]: 50 to 250 µM; `C[C@H](CC1CCCCC1)C(=O)N1CCC(O)(Cn2cnc3cc(F)c(F)cc3c2=O)C2(CCCC2)C1` (stereo partly drawn) [Example 151, 3-((7-((R)-3-Cyclohexyl-2-methylpropanoyl)-10-hydroxy-7-azaspiro[4.5]decan-10-yl)methyl)-6,7-difluoroquinazolin-4(3H)-one]: under 0.5 µM. For `CCn1cc2c(=O)n(CC3(O)CCN(C(=O)[C@H](C)CC4CCCCC4)CC34CCCC4)cnc2n1` (stereo partly drawn) [Example 152, 5-((7-((R)-3-Cyclohexyl-2-methylpropanoyl)-10-hydroxy-7-azaspiro[4.5]decan-10-yl)methyl)-2-ethyl-2,5-dihydro-4H-pyrazolo[3,4-d]pyrimidin-4-one], the IC50 was in the range of 50 to 250 µM. For `Cc1nc2cnccc2c(=O)n1CC1(O)CCN(C(=O)[C@H](C)CC2CCCCC2)CC12CCCC2` (stereo partly drawn) [Example 153, 3-((7-((R)-3-Cyclohexyl-2-methylpropanoyl)-10-hydroxy-7-azaspiro[4.5]decan-10-yl)methyl)-2-methylpyrido[3,4-d]pyrimidin-4(3H)-one], the IC50 is 0.5 to 5 µM.
